Experimental findings from the SangsterLogP compilation are described below.

Each structure is given as a SMILES string.

The data set is described as follows: from Draber, W.; Büchel, H.; Dickore, K.; Trebst, A.; Pistorius, E. (1969). Structure-activity correlation of 1,2,4-triazinones, a new group of photosynthesis inhibitors. In: Progress in Photosynthesis …. Conditions: pH 7.0.
A word on the logD: it is the decadic logarithm of the distribution of all forms, ionised or not, between an organic phase and buffer at a given pH. The low end stands for a more hydrophilic compound, the high end for a more lipophilic compound. `CC(C)c1nnc(N2CCOCC2)n(N)c1=O`: the logD was 0.49.

In turn, `CC(C)c1nnc(SCC(=O)c2ccccc2)n(N)c1=O` displayed a logD of 2.07.

For the compound `CC(C)Sc1nnc(C(C)C)c(=O)n1N`, the logD was 2.06.

As to `CCCSc1nnc(C(C)C)c(=O)n1N`, the logD came out at 2.12.

The compound `CCCCCCc1nnc(SC)n(N)c1=O` gave a logD of 2.68.

As for `CSc1nnc(-c2ccccc2)c(=O)n1N`, the logD stood at 1.66.

Take `CSc1nncc(=O)n1N`: the logD is 0.38.

`CCCCNc1nnc(C(C)C)c(=O)n1N` gave a logD of 1.78.

In turn, `CSc1nnc(C2CCCCO2)c(=O)n1N` (stereo not given) registered a logD of 0.38.

In turn, `CSc1nnc(CCC(C)C)c(=O)n1N` yielded a logD of 1.85.

`CSc1nnc(C(C)(C)C)c(=O)n1N` yielded a logD of 1.7.

`CNc1nnc(C(C)C)c(=O)n1N`: the logD was determined as 0.3.

Turning to `COc1nnc(C(C)C)c(=O)n1N`, the logD was -0.06.

The compound `CCSc1nnc(C(C)C)c(=O)n1N` gave a logD of 1.52.

As for `CCc1nnc(SC)n(N)c1=O`, the logD amounted to 0.46.
